Read-outs that look alike come from different tables or passages of the source.
Experiments:
[1] = system: MCF-7 cells; assay: Colony formation assay, MCF-7; assay type: cell-based, human; conditions: IC50 concentration, 10–12 days, vs control
Method: (§1) The colony-forming assay was performed to evaluate the effect of selected compounds on cell colonization potential of cancer cells. Briefly, cells were plated at a density of 1000–2000 (A549/MCf-7) cells per well in a six-well cell culture plate. Cells were grown for at least 24 h in cell growth medium and then incubated with IC50 concentration of selected compounds for 10–12 days at 37 °C (in a humidified 5% CO2 incubator). Control cells were treated with an equal percentage of DMSO. After 10–12 days, the cell colonies were fixed with 100% methanol and staining was performed using 0.4% crystal violet in 25% methanol. The colonies obtained was counted, plotted and compared with the controls.

[2] = molecular target: T1, MARK4 (Homo sapiens, UniProt Q96L34); assay: MARK4 ATPase enzyme inhibition assay; assay type: biochemical
T1 construct: MARK4 protein was expressed and purified by following previous protocols; made in house
T1 sequence (Q96L34 1-752): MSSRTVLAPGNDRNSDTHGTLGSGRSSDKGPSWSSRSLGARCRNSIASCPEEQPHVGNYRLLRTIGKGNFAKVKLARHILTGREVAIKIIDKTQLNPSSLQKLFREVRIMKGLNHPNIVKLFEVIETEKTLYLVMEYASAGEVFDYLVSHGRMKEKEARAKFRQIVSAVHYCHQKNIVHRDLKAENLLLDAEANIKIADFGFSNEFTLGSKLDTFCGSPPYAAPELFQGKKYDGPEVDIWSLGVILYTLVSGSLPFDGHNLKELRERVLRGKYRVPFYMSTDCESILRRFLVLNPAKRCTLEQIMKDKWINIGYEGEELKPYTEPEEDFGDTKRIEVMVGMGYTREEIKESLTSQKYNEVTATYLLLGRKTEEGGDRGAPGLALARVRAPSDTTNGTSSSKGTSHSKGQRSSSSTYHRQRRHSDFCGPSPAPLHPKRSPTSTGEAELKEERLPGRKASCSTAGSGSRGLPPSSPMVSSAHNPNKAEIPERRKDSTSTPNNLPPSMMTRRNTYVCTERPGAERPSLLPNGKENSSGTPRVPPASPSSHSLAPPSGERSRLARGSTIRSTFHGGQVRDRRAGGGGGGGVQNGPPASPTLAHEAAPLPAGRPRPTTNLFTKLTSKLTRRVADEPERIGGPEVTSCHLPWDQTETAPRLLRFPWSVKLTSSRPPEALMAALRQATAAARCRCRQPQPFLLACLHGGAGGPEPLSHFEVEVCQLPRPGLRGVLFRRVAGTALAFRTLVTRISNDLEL
Method: MARK4 protein was expressed and purified by following previous protocols.[27,37] The purity of the protein was further confirmed by a single band shown by SDS PAGE. ATPase assay was carried out to evaluate the enzyme activity of MARK4 in the presence of selected hydrazone derivatives. The activity of MARK4 was studied with the increasing concentration of each selected hydrazone derivative by following our published protocol.[24,38]
To further evaluate the inhibitory potential of selected compounds with MARK4, enzyme inhibition assay was performed (at a single dose of 10 μM). […] Thus, these two compounds were further selected and evaluated with MARK4 in a concentration-dependent manner. […] The percent inhibition of ATPase activity was plotted as a function of ligand concentration and used to estimate IC50 (concentration of 50% inhibition, Fig. 1A).

[3] = system: A549 cells; assay: Trans-well cell migration assay, A549; assay type: cell-based, human; conditions: IC50 concentration, 24 h, Boyden chamber, vs control
Method: (§2) Trans-well migration assay was performed using a modified Boyden chamber containing cell culture inserts (8 μm pore size, polyethylene terephthalate track-etched membrane, BD Falcon #353093). Briefly, cells were serum-starved for 3–4 h, trypsinized and suspended in a serum-free medium. In the upper chamber of cell culture insert, an equal number of cells with the IC50 dose of selected compounds or DMSO (control) were plated and in the lower chamber of well plate, 10% FBS-DMEM (for chemotaxis movement) was added. The cells were allowed to migrate for 24 h in a humidified 5% CO2 incubator at 37 °C and the migrated cells (that invaded through membrane pores) onto the lower side of Trans-well cell culture insert were fixed with methanol and staining was performed using 0.4% crystal violet in 25% methanol. The remaining cells present on the upper side of the chamber were wiped off with the help of cell scrapper/tissue wipes. Finally, the migrated cells present on the lower surface of the cell culture insert were imaged using a light microscope and counted in 3–5 random fields.

[4] = system: A549 cells; assay: MTT cell proliferation assay, A549; assay type: cell-based; conditions: Homo sapiens, read-out: IC50, cell proliferation, A549 cells
Method: (§3) Human cell lines (HEK-293, A549 and MCF-7) were seeded and maintained in a medium supplemented with DMEM along with 10% heat-inactivated fetal bovine serum (Gibco) and 1% penicillin, streptomycin solution (Gibco), cultured in a 5% CO2 humidified incubator at 37 °C. Cell cultures were maintained and trypsinized regularly, not for more than 30 passages. MTT assay was carried out to see the effect of selected hydrazone compound treatment on the viability of non-cancerous (HEK-293) and cancerous cell lines (A549 and MCF-7) as per described method.[22,24] In brief, 6000–7000 cells per well were seeded in a 96-well plate and after 24 h growth, the cells were treated with increasing concentrations (0–200 μM) of each hydrazone (final volume of 200 μL) for 48 h at 37 °C in a humidified chamber. After 48 h, MTT was added (20 μL solution from 5 mg mL^−1 stock solution prepared in phosphate buffer saline, pH 7.4) to each well and plates were further incubated for 4–5 h at 37 °C in a CO2 incubator. The supernatant was aspirated and the formazan crystals were dissolved in 150 μL of DMSO. The absorbance (A) of final products was measured using multiplate ELISA reader (BioRad) at 570 nm. The percentage of cell viability was calculated and IC50 (50% inhibitory concentration) values of each hydrazone derivative were estimated (paclitaxel was taken as a positive control for cell proliferation studies).

[5] = system: A549 cells; assay: Annexin-V/PI apoptosis assay by flow cytometry, A549; assay type: cell-based, human; conditions: IC50 concentration, 48 h
Method: (§4) Annexin-V staining was used to assess the apoptotic potential of the selected hydrazones as described.[22,41] Briefly, cells were treated with IC50 concentration of selected hydrazones for 24 h and control cells were treated with DMSO/culture medium only. After 24 h incubation, approximately 2.0–2.5 × 10^6 cells were collected by trypsinization and washed twice with PBS (5–10 mL). Finally, FITC labelled Annexin-V and PE labelled PI was used for staining the cells using the FITC-Annexin-V kit by following manufacture instructions (BD-Biosciences, USA). Nearly, 10 000 events were recorded using BD LSR II Flow Cytometry Analyzer and analyzed by FlowJo software.
(§5) Cancer cells support their growth and maintenance by evading the apoptotic pathways.[48] MARK4 regulates the cancer cell growth and proliferation via modulating the apoptotic pathways.[12,15,46] The treatment of MCF-7 and A549 cells with H4 and H19 inhibit the activity of MARK4, decreases cell proliferation and migration raises the evaluation of these MARK4 inhibitors for the apoptosis induction. Thus, to investigate whether the selected inhibitor induces cell death via apoptosis or not, we have performed Annexin-V/PI staining using flow cytometry. Cells were treated with IC50 concentration of each molecule for 48 h and processed for apoptosis analysis. […]

[6] = system: A549 cells; assay: Colony formation assay, A549; assay type: cell-based, human; conditions: IC50 concentration, 10–12 days, vs control
Method: as §1

[7] = system: MCF-7 cells; assay: Annexin-V/PI apoptosis assay by flow cytometry, MCF-7; assay type: cell-based, human; conditions: IC50 concentration, 48 h
Method: as §4, §5

[8] = system: MARK4 and p-tau in MCF-7 cells; assay: Immunoblotting of MARK4 and p-tau in treated MCF-7 cells; assay type: cell-based, human; conditions: IC50 concentration, vs control
Method: The compound treated cell line samples were lysed in RIPA cell lysis buffer (Thermo Fisher Scientific, USA) in an ice-cold condition using ultrasonication. Total protein was isolated and protein estimation was performed using Bicinchoninic Acid Assay (BCA-protein estimation kit). Nearly 30–40 μg of whole protein lysate was diluted with 6× Laemmli's buffer, boiled for 3–5 min and resolved using 10–12% SDS-polyacrylamide electrophoresis under reducing conditions. The resolved polypeptides were transferred to polyvinylidene fluoride (PVDF) membrane through blotting, peptide-specific primary antibodies were used for identification and horseradish peroxidase coupled conjugates were used for visualization using luminol as a chemiluminescent substrate.[40]
Next, we tried to see the inhibition potential of these molecules at the cellular level. Cells were treated with IC50 concentration of each molecule and processed for the expression studied of MARK4 and p-tau (substrate of MARK4). […] Phosphorylation of tau correspondingly decreases in the treated cells as compared to control (Fig. 1B).

[9] = system: MCF-7 cells; assay: MTT cell proliferation assay, MCF-7; assay type: cell-based; conditions: Homo sapiens, read-out: IC50, cell proliferation, MCF-7 cells
Method: as §3

[10] = system: MCF-7 cells; assay: Trans-well cell migration assay, MCF-7; assay type: cell-based, human; conditions: IC50 concentration, 24 h, Boyden chamber, vs control
Method: as §2

[11] = molecular target: human serum albumin (HSA) (Homo sapiens, UniProt P02768); assay: Fluorescence quenching binding study with HSA; conditions: Stern–Volmer plot, ligand 0–20 μM, HSA 5–10 μM
Method: (§6) The binding affinity of selected hydrazone derivatives with human serum albumin (HSA) and MARK4 was carried out using fluorescence binding studies as described.[39] The values of binding constant (Ka) and a number of binding sites present in protein (n) were obtained by using the modified Stern–Volmer equation from the intercept and slope, respectively.
(§7) To measure the actual binding affinity of selected ligands with MARK4 and HSA, fluorescence quenching studies were performed.[43,44] Both MARK4 and HSA contain tryptophan residues, therefore it has been used as an intrinsic fluorophore to estimate the interaction of ligand. Protein was excited at 280 nm and the emission spectrum was recorded in 300–400 nm range. With increasing ligand concentrations (0–20 μM), the fluorescence intensity of MARK4 and HSA was decreases in a concentration-dependent manner (Fig. 3 and 4), indicating a considerable binding. Values of Ka and n were calculated from fluorescence emission spectra using the Stern–Volmer plot. […]
(§8) Fig. 4 Binding of compound H4 and H19 with HSA. (A) Fluorescence emission spectra of HSA (5–10 μM) with increasing concentrations of compound H4 and H19. (B) Stern–Volmer plot obtained from the fluorescence quenching data of HSA by compound H4 and H19, respectively. Protein sample was excited at 280 nm and emission for each titration was recorded in the range of 300–400 nm. […]

[12] = molecular target: T1, MARK4; assay: Fluorescence quenching binding study with MARK4; conditions: Stern–Volmer plot, ligand 0–20 μM, MARK4 5 μM
Method: as §6, §7
as §8, with “Fig. 3” for “Fig. 4”, “with MARK4.” for “with HSA.”, “of MARK4 (5” for “of HSA (5–10”, “of MARK4” for “of HSA”

[13] = system: HEK293 cells; assay: MTT cell viability assay, non-cancerous HEK293; assay type: cell-based, human; conditions: at the IC50 or active concentration, compared with cancerous cells
Method: as §3

[14] = bound stated after screen at a single dose of 10 μM, read-out: IC50, MARK4 enzyme inhibition
[15] = cell-free, concentration-dependent, read-out: IC50, inhibition of ATPase activity of MARK4

Chain of human serum albumin (HSA) (P02768 25-609): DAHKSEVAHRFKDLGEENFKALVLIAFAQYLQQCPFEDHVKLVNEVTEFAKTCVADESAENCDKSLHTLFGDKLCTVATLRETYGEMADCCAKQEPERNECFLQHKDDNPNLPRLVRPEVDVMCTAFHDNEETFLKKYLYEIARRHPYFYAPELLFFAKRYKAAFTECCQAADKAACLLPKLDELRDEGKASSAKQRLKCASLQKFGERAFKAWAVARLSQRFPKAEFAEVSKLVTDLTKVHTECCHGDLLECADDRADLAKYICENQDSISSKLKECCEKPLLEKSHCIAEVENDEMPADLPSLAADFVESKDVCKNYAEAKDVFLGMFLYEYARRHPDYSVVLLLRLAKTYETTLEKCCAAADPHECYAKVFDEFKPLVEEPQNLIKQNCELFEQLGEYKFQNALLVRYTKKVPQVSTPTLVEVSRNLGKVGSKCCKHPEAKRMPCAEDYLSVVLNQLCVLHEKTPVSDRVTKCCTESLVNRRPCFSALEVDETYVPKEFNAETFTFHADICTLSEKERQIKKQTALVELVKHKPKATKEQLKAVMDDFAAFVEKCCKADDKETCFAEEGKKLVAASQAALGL

melting point	Structure (SMILES)	number of colonies, MCF-7 [1]	IC50 [2, 14]	IC50 [2, 15]	cell migration, A549 [3]	apoptosis induced, share of A549 cells [5]	number of colonies, A549 [6]	apoptosis induced, share of MCF-7 cells [7]	protein level of MARK4 [8]	protein level of p-tau [8]	cell migration, MCF-7 [10]	cytotoxicity to non-cancerous cells [13]	also measured
96 to 100 °C	CN(C)CCOc1ccc(C(=O)NN=Cc2ccc([N+](=O)[O-])cc2)cc1 [H6]	–	–	–	–	–	–	–	–	–	–	–	–
149 to 153 °C	CN(C)CCOc1ccc(C(=O)NN=Cc2ccccc2O)cc1 [H7]	–	–	–	–	–	–	–	–	–	–	–	–
–	Cc1cc(C)c(C=NNC(=O)c2ccc(OCCN(C)C)cc2)c(C)c1 [H19]	significantly decreased	< 1 µM	0.215 µM	lesser number of cells were migrated	24.25%	significantly decreased	26.71%	decreases	decreases	lesser number of cells were migrated	less toxic	IC50 ([4]; A549, 48 h): 61.5 µM; IC50 ([9]; MCF7, 48 h): 34.4 µM; Kd ([11]; read-out: binding constant Ka for HSA (converted)): 7.69 µM; Kd ([12]; read-out: binding constant Ka for MARK4 (converted)): 0.0104 µM
109 to 114 °C	CN(C)CCOc1ccc(C(=O)NN=Cc2ccc(O)cc2)cc1 [H8]	–	–	–	–	–	–	–	–	–	–	–	–
125 to 130 °C	CN(C)CCOc1ccc(C(=O)NN=Cc2cccc([N+](=O)[O-])c2)cc1 [H5]	–	–	–	–	–	–	–	–	–	–	–	–
–	CN(C)CCOc1ccc(C(=O)NN=Cc2ccc(Cl)cc2)cc1 [H4]	significantly decreased	< 1 µM	0.149 µM	lesser number of cells were migrated	28.5%	significantly decreased	30.29%	decreases	decreases	lesser number of cells were migrated	less toxic	IC50 ([4]; A549, MTT, 48 h, 0–200 μM): 45.2 µM; IC50 ([9]; MCF7, MTT, 48 h, 0–200 μM): 27.4 µM; binding constant Ka for HSA [11]: 443000 M⁻¹; binding constant Ka for MARK4 [12]: 4.07e+09 M⁻¹
